pIC50: −log10 of the molar value.
Experiment: Cytotoxicity against human WHCO1 cells after 48 hrs by MTT assay
Assay type: functional, cell-based
Conditions: WHCO1, 48 h
Work on `COC(=O)[C@H]1[C@H]2[C@H]([C@H](I)CC[C@@H]2C(=O)OC)N(c2ccccc2)[C@H]1c1ccccc1` (racemic) yielded a pIC50 of 4.06. In the case of `COC(=O)[C@H]1[C@H]2[C@H]([C@H](I)CC[C@@H]2C(=O)OC)N(c2ccc(C)cc2)[C@H]1c1ccc(OC)cc1` (racemic), the pIC50 was 4.42. `COC(=O)[C@H]1[C@H]2[C@H]([C@H](I)CC[C@@H]2C(=O)OC)N(c2ccc(C)cc2)[C@H]1c1ccccc1` (racemic) gave a pIC50 of 4.39. Work on `COC(=O)[C@H]1[C@H]2[C@H]([C@H](I)CC[C@@H]2C(=O)OC)N(c2ccccc2)[C@H]1c1ccc(OC)cc1` (racemic) yielded a pIC50 of 4.43. With `COC(=O)[C@H]1[C@H]2[C@H]([C@H](I)CC[C@@H]2C(=O)OC)N(c2ccccc2)[C@H]1c1ccc(Cl)cc1` (racemic) the pIC50 was 4.43. Compound `Cc1ccc([C@@H]2[C@@H]3C(=O)NC(=O)[C@@H]4CC[C@@H](I)[C@@H]([C@H]34)N2c2ccc(C)cc2)cc1` (racemic) has a pIC50 of 4.85. For `Cc1ccc(N2[C@@H]3[C@@H]4[C@@H](C(=O)NC(=O)[C@@H]4CC[C@H]3I)[C@H]2c2ccc(Cl)cc2)cc1` (racemic), the pIC50 was 4.89. In the case of `O=C1NC(=O)[C@@H]2CC[C@@H](I)[C@H]3[C@@H]2[C@@H]1[C@@H](c1ccc(Cl)cc1)N3c1ccccc1` (racemic), the pIC50 was 4.75.

From ChEMBL document CHEMBL2150900, “β-Lactam synthon-interceded diastereoselective synthesis of functionalized octahydroindole-based molecular scaffolds and their in vitro cytotoxic evaluation” (Eur J Med Chem, 2012)
